Results reported in patent US8852876B2, “Label free biosensors and cells” (Corning Incorporated, priority 2008, dated 2014).
*1 amine or outer side, *2 acyl side, *3 side chain or, on linkers, in order; H or OH if unused. Where a SMILES comes first, the peptide text is derived from it. Bridges are numbered along the chain shown (N, C = ends). [ ]: non-standard residue; d: D form. Trp(2-yl) = O=C([C@H](Cc1c([*:3])[nH]c2ccccc12)N[*:1])[*:2]; Leu(4R-OH,5-OH) = C[C@](O)(CO)C[C@H](N)C(=O)O; cisHyp = O=C(O)[C@@H]1C[C@H](O)CN1

Legend:
CHO cells [1] = assay: Saponin-permeabilized cell assay for cytoskeleton modulators (LID biosensor); assay type: cell-based, Chinese hamster; settings: saponin 67 ug/ml
Excerpt: The method involves the use of pore-forming reagents (e.g, saponin) to generate permeabilized cells which permit soluble proteins to diffuse away. It is known that treatment of the cells with many pore-forming reagents leads to permeabilized cells. Since intracellular macromolecules are highly organized within the cytoplasm of mammalian cells through direct binding to cytoskeletal elements, the permeabilized cells still retain most of the biological functions of living cells by sequestration of intracellular machinery through the cytoskeleton super-assembled structure, although the saponin-treated cells undergo the loss of some portions of biomacromolecules. However, upon disruption of microfilaments there is a dramatic reduction of protein synthesis accompanied by release of these translation components from the cells. Also, many other sequestered biomacromolecules are released from these permeabilized cells after disrupting the cytoskeleton structure. These further released materials from the permeabilized cells result in the loss in mass; thus resulting in the changes in effective refractive index of the cell layer on the surface of a LID biosensor which can be detected by LID biosensors. Thus, the changes obtained using optical biosensors can be used as an indicator of modulators that interfere with the cytoskeleton structure. In one embodiment, the present methods can be used to screen modulators that interfere with the cytoskeleton structure using the method 2500 shown in FIG. 25. In accordance with method 2500 one can monitor the mass redistribution due to pore formation of cell surface membranes induced by pore-forming reagents such as saponin in living cells 1008 by: (a) providing an optical LID biosensors 1004 (step 2502); (b) placing cells 1008 in a cell medium onto the said sensor 1004 (step 2504); (c) Optionally applying a buffer solution (step 2506); (d) applying a solution containing a compound into the cell mediums located on the top surfaces 1010 of covered optical LID biosensors 1004 (step 2508); applying a solution containing a pore-forming reagent (step 2510); and (e) interrogating the covered optical LID biosensors 1010 to monitor the time dependent optical responses which indicate mass redistributions within the permeabilized cells 1008 (step 2512). A Pore-forming reagent is a chemical or biological compound or composition that can result in the formation of pores in cell surface membranes when the cells are exposed to the reagent.
The pore-forming regents include detergents such as saponin and filipin, or toxin such as digitonin or streptolysin O. It is well known that treatment of the cells with these reagents can result in the pore formation in cell surface membrane; the resulted permeabilized cells can release a certain amount of intracellular material, mainly soluble proteins. However, there are a great number of bio-materials that still stay with these permeabilized cells due to the sequestration by directly binding or association with the cytoskeleton structure. As a matter of fact, these permeabilized cells retain many of the biological functions of living cells such as protein synthesis.
FIG. 50 presents the dose-dependent responses of CHO cells adherent on the surface of a LID sensor in response to saponin as a function of time. After the addition of saponin at different concentrations, a different response is evident. At low concentration, there is almost no response. […]

[2] = tested on: EGF-induced response of quiescent A431 cells; assay: Effect of compound pretreatment on EGF-induced DMR response; assay type: cell-based, human; settings: quiescent A431 cells; 32 nM EGF
Method: Both A431 and CHO-K1 cells were grown in Dulbecco's modified Eagle's medium (DMEM) supplemented with 10% fetal calf serum, 100 μg/ml penicillin, and 100 μg/ml streptomycin. For cell culture, certain numbers of cells (2×10^5 to 1×10^6), either A431 or CHO-K1, were suspended in […] medium were placed in each well of a 96 well Corning Epic Biosensor microplate, and were cultured at 37° C. in air/5% CO2 for certain time until the cell density reached ˜90% and above (unless specified). The resulted cells were termed as “profilerating” cells. The “quiescent” cells were obtained by culturing the profilerating cells of desired confluencies with a medium containing no or little (˜0.1% fetal bovine serum (FBS)) for at least 16 hours.
During the assays, the cells in 100 μl medium were subject to two 25 μl HBSS buffer containing 20 mM HEPES, pH 7.4, each separated by at least 15 minutes before 50 μl stimulus-containing solution was applied. During all these steps, a parallel angular interrogation system was used to monitor the real time kinetics of cellular responses. For compound effect studies, a modified protocol was used which starts with 50 μl medium, and subject to sequential treatment: 25 μl HBSS buffer twice (each separated by at least 15 minutes), 50 μl compound solution and finally 50 μl stimulus-containing solution.

[3] = tested on: protease activated receptors PAR1 and PAR2; assay type: cell-based, human; settings: 100 or 200 nM trypsin; modulators 10 μM
Method: (§1) Human epidermoid carcinoma A431 cells (American Type Cell Culture) were grown in Dulbecco's modified Eagle's medium (DMEM) supplemented with 10% fetal bovine serum (FBS), 4.5 g/liter glucose, 2 mM glutamine, and antibiotics. ˜3-7.5×10^4 cells at passage 3 to 5 suspended in 200 μl the DMEM medium containing 10% FBS were placed in each well of a 96 well microplate, and were cultured at 37° C. under air/5% CO2 until ˜95% confluency was reached (˜2-4 days).
(§2) The compound or PAR agonist solutions were made in 1×HBSS in order to match the refractive index between the cell medium and compound solution, thus minimizing the unwanted effect of bulk index change due to the introduction of compound solution which can temporarily overwhelms any DMR signal as it occurs.

[4] = molecular target: T1, protease activated receptors PAR1 and PAR2 (Homo sapiens, UniProt P25116); assay type: cell-based; settings: 40 unit/ml thrombin; modulators 10 μM
T1 construct: A431 cells which endogenously express PAR1 and PAR2; endogenous in cells; host or cells: A431
T1 sequence (P25116 22-425): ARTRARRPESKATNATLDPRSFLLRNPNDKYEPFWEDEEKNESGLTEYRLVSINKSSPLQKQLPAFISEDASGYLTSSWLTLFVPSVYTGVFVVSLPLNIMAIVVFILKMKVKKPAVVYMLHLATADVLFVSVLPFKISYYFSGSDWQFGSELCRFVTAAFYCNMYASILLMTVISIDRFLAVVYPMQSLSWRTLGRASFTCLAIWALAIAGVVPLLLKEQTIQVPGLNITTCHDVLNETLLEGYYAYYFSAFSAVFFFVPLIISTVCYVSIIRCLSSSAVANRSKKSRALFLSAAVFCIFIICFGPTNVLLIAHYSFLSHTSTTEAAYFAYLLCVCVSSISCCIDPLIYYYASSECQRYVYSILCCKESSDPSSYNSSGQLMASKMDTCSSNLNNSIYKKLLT
Method: as §1, §2

CHO cells [5] = assay: Biosensor-based cell toxicity (real-time DMR, TM0 resonant peak and band image); parameters: species or system Chinese hamster; settings: for TM0 mode resonance band image: 25 min
Excerpt: Profiling compounds by virtue of their cytotoxic and anti-proliferative effects is often used to profile potential anticancer agents. One such phenotype is the compromise in plasma membrane integrity when cells are exposed to cytotoxic agents, including dimethyl sulfoxide (DMSO). Using a waveguide-based biosensor technique, the feasibility for monitoring the effect of DMSO on both Chinese hamster ovary (CHO) and A431 cells was examined. Approximately 10×10^5 cells were placed into each well of a Corning Epic LID microplate. These cells were cultured in serum medium for overnight to ensure that the cells became adherent to the substrate surface and reach at least 80% confluence. The response of cells to DMSO at different concentrations (1%, 2%, 5%, 10%, 15%, 18% and 20%) was examined. Higher concentrations of ˜≧25% of DMSO result in bulk index changes which are beyond the maximum dynamic range of the sensor used and the signal was lost. At least two sets of experiments were carried out for each cell line.
Both A431 and CHO-K1 cells were grown in Dulbecco's modified Eagle's medium (DMEM) supplemented with 10% fetal calf serum, 100 μg/ml penicillin, and 100 μg/ml streptomycin. For cell culture, ˜10×10^5 cells, either A431 or CHO-K1, were suspended in 200 μl medium were placed in each well of a 96 well Corning Epic Biosensor microplate, and were cultured at 37° C. in air/5% CO2 for overnight. Before the assays, the cells were washed once with the corresponding medium. During the assays, the cells in 100 μl medium were subject to two 25 μl HBSS buffer solutions containing 20 mM HEPES, pH 7.4, each separated by at least 15 minutes before 50 μl DMSO solution was applied. During all these steps, a parallel angular interrogation system was used to monitor the real time kinetics of cellular responses.
In one embodiment, the present invention provides a method for high throughput screening compound toxicity on cells using optical biosensors, which comprises of: (a) Provide a microplate that there is an optical-based label free biosensor embedded in the bottom of each well; (b) Place cells into each well to cover the biosensor such that the cells attach and reach high confluency onto the surface of the biosensor; (c) Apply a compound solution into the cell medium of each well; (e) Collect optical waveguide lightmode spectra at certain time. Comparing the PWHM of each compound with a control well wherein the cells are not exposed to any compound solution, the toxicity of compounds can be evaluated using the single data point. If necessary, time-dependent PWHM changes can be also recorded to study the kinetics.
In another embodiment, the present invention provides alternative methods to evaluate compound toxicity, which comprises of: (a) Provide a microplate that there is an optical-based label free biosensor embedded in the bottom of each well; (b) Place cells into each well to cover the biosensor such that the cells attach and reach desired confluency onto the surface of the biosensor; (c) Apply a compound solution into the cell medium of each well; (e) Collect images of TM0 mode resonance angular band of the whole sensor area of each well at certain time. Comparing the widths of the resonant bands of sensors that have been treated with a compound solution with that of a control well wherein the cells are not exposed to any compound solution; the toxicity of compounds can be evaluated.

| Structure (SMILES) | Effect of compound pre-treatment on saponin-induced response (loss of biomaterials) (CHO cells [1]) | Effect of pretreatment on 32 nM EGF-induced response [2] | Effect of pretreatment on trypsin-mediated DMR signal [3] | Effect of pretreatment on thrombin-mediated DMR signal [4] | also measured |
| --- | --- | --- | --- | --- | --- |
| C[C@H]1CCC/C=C/[C@@H]2C[C@H](O)C[C@H]2[C@H](O)/C=C/C(=O)O1 [brefeldin A] | show no effect on a saponin-induced response | – | – | – | – |
| CC[C@]1(O)C[C@@H]2CN(CCc3c([nH]c4ccccc34)[C@@](C(=O)OC)(c3cc4c(cc3OC)N(C)[C@H]3[C@@](O)(C(=O)OC)[C@H](OC(C)=O)[C@]5(CC)C=CCN6CC[C@]43[C@@H]65)C2)C1 [vinblastine] | block the saponin-induced loss of biomaterials from the cells | hardly any effect on the EGF-induced response | – | – | – |
| C=C1[C@@H](C)[C@H]2[C@H](Cc3ccccc3)NC(=O)[C@]23OC(=O)/C=C/[C@H](O)CCC[C@@H](C)C/C=C/[C@H]3[C@@H]1O [cytochalasin B] | cause increased loss of biomaterials | totally abolished the N-DMR signal | much less effective in suppressing the responses | much less effective in suppressing the responses | – |
| C[S+](C)[O-] [DMSO, dimethyl sulfoxide] | – | a little effect on the EGF-induced response | – | – | TM0 mode resonance band image (CHO cells [5]; 18% DMSO, confluency above 70%): DMSO-induced resonance band broadening; PWHM of TM0 resonant peak over time (CHO cells [5]; 18% DMSO, cell density below ~25%): no change in the PWHM value over time; PWHM of TM0 resonant peak over time (CHO cells [5]; 18% DMSO, confluency >70%): an initial increase in PWHM followed by decreasing PWHM value; DMSO-induced time-dependent response of cell layer, event D (CHO cells [5]; DMSO 20%): a prolonged and decreased signal due to the loss of proteins or other biological molecules of cells caused by the toxicity of high concentrations of DMSO; DMSO-induced time-dependent response of cell layer (CHO cells [5]; DMSO concentration <20%): the response is almost featureless; TM0 mode resonance band image (CHO cells [5]; ~15% DMSO, ~95% confluency): a second resonance band appearing; TM0 mode resonance band image, dependence on DMSO concentration (CHO cells [5]; ~95% confluency, 25 min treatment): only higher concentrations cause significant cell toxicity |
| C[C@@H]1NC(=O)[C@H](C[C@@](C)(O)CO)NC(=O)[C@@H]2Cc3c([nH]c4ccccc34)SC[C@H](NC(=O)[C@@H]([C@H](C)O)NC1=O)C(=O)N1C[C@@H](O)C[C@H]1C(=O)N[C@@H](C)C(=O)N2 [phalloidin] (cyclo(A[dT]C[cisHyp]A[Trp(2-yl)][Leu(4R-OH,5-OH)]); thioether 3-6) | delay the loss of biomaterials in saponin-treated cells | hardly any effect on the EGF-induced response | neither a stabilizing polymeric F-actin agent phalloidin nor a microtubule disrupter nocodazole had significant effect | neither a stabilizing polymeric F-actin agent phalloidin nor a microtubule disrupter nocodazole had significant effect | – |
